Measured values: paper PMC4494852, “Microwave-assisted preparation, structural characterization, lipophilicity, and anti-cancer assay of some hydroxycoumarin derivatives” (Monatshefte Fur Chemie, 2014)

Experiments:
[1] = known logP of standards; cited from earlier work
[2] = Lipophilicity by reversed-phase TLC on RP-18 WF254s plates with standardization; details: for φ 0 (intercept of the trend line with abscissa axis): molar fraction for which lipophilicity equals 0

Structure (SMILES) | LogP value [1] | R M0 (lipophilicity extrapolated to 100 % water) ([2]; acetonitrile/water) | S (slope of the trend line RM vs φ) ([2]; acetonitrile/water) | R M0 (lipophilicity extrapolated to 100 % water) ([2]; dioxane/water) | S (slope of the trend line RM vs φ) ([2]; dioxane/water) | R M0 (lipophilicity extrapolated to 100 % water) ([2]; isopropanol/water) | S (slope of the trend line RM vs φ) ([2]; isopropanol/water) | R M0 (lipophilicity extrapolated to 100 % water) ([2]; methanol/water) | S (slope of the trend line RM vs φ) ([2]; methanol/water) | φ 0 (intercept of the trend line with abscissa axis) ([2]; acetonitrile/water) | φ 0 (intercept of the trend line with abscissa axis) ([2]; dioxane/water) | φ 0 (intercept of the trend line with abscissa axis) ([2]; isopropanol/water) | φ 0 (intercept of the trend line with abscissa axis) ([2]; methanol/water) | melting point [°C]
Nc1ccc(Cl)cc1Cl [2,4-Dichloroaniline, 2,4-dichloroaniline, reference compound] | 2.91 | 1.8609 | 3.3029 | 2.0135 | 3.3036 | 2.1269 | 4.2876 | 1.8895 | 2.7739 |  |  |  |  | 
O=[N+]([O-])c1ccccc1O [2-Nitrophenol, 2-nitrophenol, reference compound] |  | 1.1246 | 2.5429 | 1.0657 | 2.2497 | 1.2375 | 2.9639 | 1.0469 | 1.9676 |  |  |  |  | 
CC(=O)Nc1ccc(Cl)c(Cl)c1 [3,4-Dichloroacetanilide, reference compound] | 2.96 |  | 3.5551 |  | 3.0847 |  | 4.1116 |  | 2.4827 |  |  |  |  | 
Nc1ccc(Cl)c(Cl)c1 [3,4-Dichloroaniline, 3,4-dichloroaniline, reference compound] | 2.69 | 1.7807 | 3.2165 | 1.9357 | 3.3499 | 2.149 | 4.4484 | 2.1151 | 3.2073 |  |  |  |  | 
O=C(c1ccccc1)c1ccccc1 [Benzophenone, benzophenone, reference compound] |  |  | 4.1335 |  | 3.6381 |  | 4.4575 |  | 3.2945 |  |  |  |  | 
CC(=O)Oc1cc(C)cc2oc(=O)cc(C)c12 [Compound 2a, 5-acetoxy-4,7-dimethylcoumarin] |  |  | 3.6418 |  | 3.2936 |  | 3.8312 |  | 2.5335 | 0.481 | 0.474 | 0.424 | 0.642 | 
N#CCOc1cc(=O)oc2ccccc12 [Compound 4, 4-(cyanomethoxy)chromen-2-one] |  |  | 2.8179 |  | 2.5467 |  | 2.2371 |  | 2.2036 | 0.438 | 0.452 | 0.401 | 0.607 | 204
Cc1cc(OCC#N)c2c(C)cc(=O)oc2c1 [Compound 5, 5-(cyanomethoxy)-4,7-dimethylchromen-2-one] |  |  | 3.3589 |  | 3.2254 |  | 2.3947 |  | 2.677 | 0.499 | 0.498 | 0.434 | 0.669 | 214 to 216
O=c1ccc2ccc(O)cc2o1 [Compound 7, umbelliferone] |  | 0.7232 | 2.0876 | 0.6676 | 1.8746 | 0.5162 | 1.6695 | 0.9623 | 1.9022 | 0.346 | 0.356 | 0.309 | 0.506 | 
Cc1cc(=O)oc2cc(O)ccc12 [Compound 8, 7-hydroxy-4-methylcoumarin] |  |  | 2.5539 |  | 2.2314 |  | 2.0405 |  | 2.0525 | 0.382 | 0.409 | 0.372 | 0.567 | 
CC(=O)c1c(O)ccc2c(C)cc(=O)oc12 [Compound 9, 8-Acetyl-7-hydroxy-4-methylcoumarin] |  |  | 3.0614 |  | 3.2472 |  | 2.6277 |  | 2.5967 | 0.464 | 0.508 | 0.446 | 0.697 | 
CC(=O)Oc1ccc2c(C)cc(=O)oc2c1 [Compound 10, 7-Acetoxy-4-methylcoumarin] |  |  | 3.506 |  | 3.3341 |  | 3.436 |  | 2.3174 | 0.526 | 0.518 | 0.448 | 0.680 | 
CC(=O)c1cc2c(C)cc(=O)oc2cc1O [Compound 11, 6-Acetyl-7-hydroxy-4-methylcoumarin] |  |  | 2.9356 |  | 2.5162 |  | 2.8074 |  | 1.8855 | 0.425 | 0.409 | 0.362 | 0.526 | 
c1ccc(Nc2ccccc2)cc1 [Diphenylamine, diphenylamine, reference compound] |  |  | 4.1309 |  | 3.8375 |  | 4.6873 |  | 2.9469 |  |  |  |  | 
c1ccc(Cc2ccccc2)cc1 [Diphenylmethane, diphenylmethane, reference compound] | 4.14 |  | 5.2957 |  | 5.0853 |  | 6.2485 |  | 4.067 |  |  |  |  | 
O=C1Nc2ccccc2C1=O [Isatine, isatine, reference compound] | 0.83 | 0.7435 | 2.0278 | 0.3418 | 1.2132 | 0.5885 | 2.0065 | 0.6009 | 1.4786 |  |  |  |  | 
